# Test results reported in patent US9409961B2, “Cell penetrating peptides to target EIF4E” (Hoffmann-La Roche Inc., priority 2012, dated 2016).
# Square brackets hold non-standard residues; d marks the D form. Peptide text beside a SMILES is read from it. tBuAla = CC(C)(C)C[C@H](N)C(=O)O; Nle = CCCC[C@H](N)C(=O)O
# Target: T1, human eIF4E (Homo sapiens, UniProt P06730)
# T1 construct: made in house
# Assay: biochemical assay of peptide binding to human eIF4E (displacement of biotin labeled 4G2 peptide)
# Conditions: HH-eIF4E, biotin labeled 4G2 peptide; read-out: Binding affinities expressed as IC50
# Protocol: A biochemical assay was run to test peptide binding to human eIF4E.
# Human eIF4E (aa 28-217, SEQ ID NO: 87) with a C-terminal His tag (HH-eIF4E, SEQ ID NO: 88) was expressed in E. coli in inclusion bodies. The protein was solubilized with 8 M urea and purified under denaturing conditions using nickel-charged HisTrap HP columns (GE Healthcare). The protein was refolded by diluting to approximately 0.25 mg/mL with 6 M urea, 20 mM Hepes pH 7.0, 500 mM NaCl, 1 mM DTT, 1 mM EDTA, and 0.5 M arginine.HCl, and then dialyzing overnight into the same buffer without the urea. The protein was further dialyzed into 20 mM Hepes pH 6.5, 50 mM NaCl, 1 mM EDTA, and 1 mM DTT, filtered, and then concentrated using Hitrap SP sepharose FF columns (GE Healthcare). The protein was dialyzed into 20 mM Hepes pH 7.0, 500 mM NaCl, 5 mM DTT, and 10% glycerol and stored at −80° C. until use.
# Test peptides (1.6 mM stock in DMSO) were diluted 3 fold in series in DMSO and solutions were diluted 4 fold in Assay Buffer (50 mM NaPi, pH 6.5, 50 mM KCl, 1 mM DTT, 0.004% NP40 and 0.5 mg/ml gammaglobulin). Six microliters per well of diluted peptide solutions and 12 microliters per well of 187.5 nM HH-eIF4E in Assay Buffer were added to 384-well polypropylene microplates (Matrix, Thermal Scientific). Twelve microliters per well of 187.5 nM biotin labeled 4G2 peptide (Ac-[…]Aha-Bio)-NH2 (SEQ ID NO: 91) 1:2 TFA) in Assay Buffer was added. The samples were incubated at room temperature for 20 minutes.
# Six microliters per well of 4.8 nM Eu-streptavidin (Columbia Biosciences) and 48 nM Allophycocyanin-anti His antibody (Columbia Biosciences) in Assay Buffer (without DTT) were then added and the samples were incubated at room temperature for 30 min. Assay signals were monitored by reading emission fluorescence at 665 nm on an Envision Reader (PerkinElmer Life and Analytical Sciences). IC50 values were calculated using Condoseo software (Genedata AG, Basel, Switzerland).
# T1 sequence (P06730 with tags, fused parts or gaps): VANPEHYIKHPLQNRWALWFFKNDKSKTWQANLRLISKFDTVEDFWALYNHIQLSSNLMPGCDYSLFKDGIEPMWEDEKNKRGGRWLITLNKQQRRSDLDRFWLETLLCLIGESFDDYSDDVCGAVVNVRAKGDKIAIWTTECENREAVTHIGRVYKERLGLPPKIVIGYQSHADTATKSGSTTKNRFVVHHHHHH
row,Molecule,IC50
1,CCCC[C@H](NC(=O)[C@H](Cc1ccccc1)NC(=O)[C@H](CCC(N)=O)NC(=O)[C@H](Cc1ccccc1)NC(=O)[C@H](C)NC(=O)[C@H](CC(C)C)NC(=O)[C@H](CC(C)C)NC(=O)[C@H](Cc1ccccc1)NC(=O)[C@H](CCC(=O)O)NC(=O)[C@H](CCCNC(=N)N)NC(=O)[C@H](CC(=O)O)NC(=O)[C@H](Cc1ccc(O)cc1)NC(=O)[C@H](CCCNC(=N)N)NC(=O)[C@H](CCCCN)NC(C)=O)C(=O)N[C@H](C(=O)N[C@@H](Cc1ccc(O)cc1)C(=O)N[C@@H](CC(=O)O)C(=O)N[C@@H](CC(C)C)C(=O)NCC(=O)N[C@@H](CC(C)C)C(=O)N[C@@H](CCCNC(=N)N)C(=O)N[C@@H](CCCNC(=N)N)C(=O)N[C@@H](CC(C)C)C(=O)N[C@@H](CCCNC(=N)N)C(=O)N[C@@H](CCC(N)=O)C(=O)N[C@@H](CCCNC(=N)N)C(=O)N[C@@H](CCCNC(=N)N)C(=O)N[C@@H](CCCNC(=N)N)C(=O)N[C@@H](CC(C)C)C(=O)N[C@@H](CCCNC(=N)N)C(=O)N[C@@H](CCCNC(=N)N)C(N)=O)C(C)C [SEQ ID NO: 7] (Ac-KRYDREFLLAFQF[Nle]VYDLGLRRLRQRRRLRR-NH2),0.21 µM

# Same assay, conditions: IC50 (μM), Table 2, cell-penetrating peptides with the Y----LL-F motif
row,Molecule,IC50
1,Ac-MANLGYWLLALFVYMWTDLLLFKKRPKP-NH2 [SEQ ID NO: 16],3.03 µM
2,Ac-MVKSKIYSWILLLFFAMWSDVALAKKRPKP-NH2 [SEQ ID NO: 20],9.96 µM
3,Ac-MVKSKIYSWILLLFFAMWSDVGLCKKRPKP-NH2 [SEQ ID NO: 15],5.2 µM
4,Ac-MVKSKIYSWILLLFFAMWSDVKLKKKRPKP-NH2 [SEQ ID NO: 21],6.85 µM
5,Ac-MVKSKYGSWILLLFVAMWSDVGLCKKRPKP-NH2 [SEQ ID NO: 13],6.89 µM
6,Ac-MVKYKIASLLLFLFVAMWSDVALAKKRPKP-NH2 [SEQ ID NO: 17],12.5 µM
7,Ac-MVKYKIASLLLFLFVAMWSDVKLKKKRPKP-NH2 [SEQ ID NO: 18],6.71 µM
8,Ac-MVKYKIGSLLLFLFVAMWSDVGLCKKRPKP-NH2 [SEQ ID NO: 12],4.13 µM

# Same assay, conditions: IC50 (μM), Table 2a, cell penetrating peptides with the Y----LL-F and YWLLALFVY motifs
row,Molecule,IC50
1,CCCC[C@H](NC(=O)[C@H](CC(C)C)NC(=O)[C@H](CC(=O)O)NC(=O)[C@@H](NC(=O)[C@H](Cc1c[nH]c2ccccc12)NC(=O)[C@H](CCSC)NC(=O)[C@H](Cc1ccc(O)cc1)NC(=O)[C@@H](NC(=O)[C@H](Cc1ccccc1)NC(=O)[C@H](CC(C)C)NC(=O)[C@H](C)NC(=O)[C@H](CC(C)C)NC(=O)[C@H](CC(C)C)NC(=O)[C@H](Cc1c[nH]c2ccccc12)NC(=O)[C@H](Cc1ccc(O)cc1)NC(=O)[C@H](C)NC(=O)[C@H](CC(C)C)NC(=O)[C@H](C)NC(=O)[C@H](C)NC(=O)[C@H](CCSC)NC(C)=O)C(C)C)[C@@H](C)O)C(=O)N[C@@H](CC(C)C)C(=O)N[C@@H](Cc1ccccc1)C(=O)N[C@@H](CCCCN)C(=O)N[C@@H](CCCCN)C(=O)N[C@@H](CCCNC(=N)N)C(=O)N1CCC[C@H]1C(=O)N[C@@H](CCCCN)C(=O)N1CCC[C@H]1C(N)=O [SEQ ID NO: 28] (Ac-MAALAYWLLALFVYMWTDL[Nle]LFKKRPKP-NH2),4.59 µM
2,CCCC[C@H](NC(=O)[C@H](CC(C)C)NC(=O)[C@H](CC(=O)O)NC(=O)[C@@H](NC(=O)[C@H](Cc1c[nH]c2ccccc12)NC(=O)[C@H](CCSC)NC(=O)[C@H](Cc1ccc(O)cc1)NC(=O)[C@@H](NC(=O)[C@H](Cc1ccccc1)NC(=O)[C@H](CC(C)C)NC(=O)[C@H](C)NC(=O)[C@H](CC(C)C)NC(=O)[C@H](CC(C)C)NC(=O)[C@H](Cc1c[nH]c2ccccc12)NC(=O)[C@H](Cc1ccc(O)cc1)NC(=O)[C@H](CCCCN)NC(=O)[C@H](CC(C)C)NC(=O)[C@H](CCCCN)NC(=O)[C@H](C)NC(=O)[C@H](CCSC)NC(C)=O)C(C)C)[C@@H](C)O)C(=O)N[C@@H](CC(C)C)C(=O)N[C@@H](Cc1ccccc1)C(=O)N[C@@H](CCCCN)C(=O)N[C@@H](CCCCN)C(=O)N[C@@H](CCCNC(=N)N)C(=O)N1CCC[C@H]1C(=O)N[C@@H](CCCCN)C(=O)N1CCC[C@H]1C(N)=O [SEQ ID NO: 29] (Ac-MAKLKYWLLALFVYMWTDL[Nle]LFKKRPKP-NH2),7.39 µM
3,CSCC[C@H](NC(=O)[C@H](Cc1ccc(O)cc1)NC(=O)[C@@H](NC(=O)[C@H](Cc1ccccc1)NC(=O)[C@H](CC(C)C)NC(=O)[C@H](C)NC(=O)[C@H](CC(C)C)NC(=O)[C@H](CC(C)C)NC(=O)[C@H](Cc1c[nH]c2ccccc12)NC(=O)[C@H](Cc1ccc(O)cc1)NC(=O)[C@H](C)NC(=O)[C@H](CC(C)C)NC(C)=O)C(C)C)C(=O)N[C@@H](Cc1c[nH]c2ccccc12)C(=O)N[C@H](C(=O)N[C@@H](CC(=O)O)C(=O)N[C@@H](CC(C)C)C(=O)N[C@@H](CCCNC(=N)N)C(=O)N[C@@H](CC(C)C)C(=O)N[C@@H](CC(C)(C)C)C(=O)N[C@@H](CCCCN)C(=O)N[C@@H](CCCCN)C(=O)N[C@@H](CCCNC(=N)N)C(=O)N1CCC[C@H]1C(=O)N[C@@H](CCCCN)C(=O)N1CCC[C@H]1C(N)=O)[C@@H](C)O [SEQ ID NO: 32] (Ac-LAYWLLALFVYMWTDLRL[tBuAla]KKRPKP-NH2),4.73 µM
4,CCCC[C@H](NC(=O)[C@H](Cc1ccc(O)cc1)NC(=O)[C@@H](NC(=O)[C@H](Cc1ccccc1)NC(=O)[C@H](CC(C)C)NC(=O)[C@H](C)NC(=O)[C@H](CC(C)C)NC(=O)[C@H](CC(C)C)NC(=O)[C@H](Cc1c[nH]c2ccccc12)NC(=O)[C@H](Cc1ccc(O)cc1)NC(=O)[C@H](C)NC(=O)[C@H](CC(C)C)NC(=O)[C@H](CC(N)=O)NC(=O)[C@H](C)NC(=O)[C@H](CCSC)NC(C)=O)C(C)C)C(=O)N[C@@H](Cc1c[nH]c2ccccc12)C(=O)N[C@H](C(=O)N[C@@H](CC(=O)O)C(=O)N[C@@H](CC(C)C)C(=O)N[C@@H](CCCNC(=N)N)C(=O)N[C@@H](CC(C)C)C(=O)N[C@@H](Cc1ccccc1)C(=O)N[C@@H](CCCCN)C(=O)N[C@@H](CCCCN)C(=O)N[C@@H](CCCNC(=N)N)C(=O)N1CCC[C@H]1C(=O)N[C@@H](CCCCN)C(=O)N1CCC[C@H]1C(N)=O)[C@@H](C)O [SEQ ID NO: 39] (Ac-MANLAYWLLALFVY[Nle]WTDLRLFKKRPKP-NH2),1.75 µM
5,Ac-ANLAYWLLALFVYMWTDLRLFKKRPKP-NH2 [SEQ ID NO: 34],2.22 µM
6,Ac-AYWLLALFVYMWTDLRLFKKRPKP-NH2 [SEQ ID NO: 36],2.53 µM
7,Ac-LAYWLLALFVYMWTDLRLAKKRPKP-NH2 [SEQ ID NO: 33],6.24 µM
8,Ac-LAYWLLALFVYMWTDLRLFKKRPKP-NH2 [SEQ ID NO: 31],4.35 µM
9,Ac-MAALAYWLLALFVYMWTDLLLFKKRPKP-NH2 [SEQ ID NO: 27],10.7 µM
10,Ac-MANLAYWLLALFVYLWTDLRLFKKRPKP-NH2 [SEQ ID NO: 38],3.04 µM
11,Ac-MANLAYWLLALFVYMFTDLRLFKKRPKP-NH2 [SEQ ID NO: 42],3.91 µM
12,Ac-MANLAYWLLALFVYRWTDLRLFKKRPKP-NH2 [SEQ ID NO: 41],3.48 µM

# Same assay, conditions: IC50 (μM), Table 3, cell-penetrating peptides without the Y----LL-F motif
row,Molecule,IC50
1,CCCC[C@H](NC(=O)[C@H](CC(C)C)NC(=O)[C@H](CO)NC(=O)[C@H](C)NC(=O)[C@@H](NC(=O)[C@H](CCCCN)NC(=O)[C@H](Cc1ccc(O)cc1)NC(=O)[C@H](CCCCN)NC(=O)[C@@H](NC(=O)[C@H](CCSC)NC(C)=O)C(C)C)[C@@H](C)CC)C(=O)N[C@@H](CC(C)C)C(=O)N[C@@H](Cc1ccccc1)C(=O)N[C@@H](CC(C)C)C(=O)N[C@@H](Cc1ccccc1)C(=O)N[C@H](C(=O)N[C@@H](C)C(=O)N[C@@H](CCSC)C(=O)N[C@@H](Cc1c[nH]c2ccccc12)C(=O)N[C@@H](CO)C(=O)N[C@@H](CC(=O)O)C(=O)N[C@H](C(=O)N[C@@H](C)C(=O)N[C@@H](CC(C)C)C(=O)N[C@@H](C)C(=O)N[C@@H](CCCCN)C(=O)N[C@@H](CCCCN)C(=O)N[C@@H](CCCNC(=N)N)C(=O)N1CCC[C@H]1C(=O)N[C@@H](CCCCN)C(=O)N1CCC[C@H]1C(N)=O)C(C)C)C(C)C [SEQ ID NO: 45] (Ac-MVKYKIASL[Nle]LFLFVAMWSDVALAKKRPKP-NH2),3.06 µM
2,Ac-LAYWLLALFVAMWTDLRLFKKRPKP-NH2 [SEQ ID NO: 49],1.99 µM
3,Ac-LLALFVYMWTDLRLFKKRPKP-NH2 [SEQ ID NO: 51],3.75 µM

# Same assay, conditions: Table 1, peptides which bind eIF4E but are not cell-penetrating; read-out: IC50
row,Molecule,IC50
1,CCCC[C@H](NC(=O)[C@H](Cc1ccccc1)NC(=O)[C@H](CCC(N)=O)NC(=O)[C@H](Cc1ccccc1)NC(=O)[C@H](C)NC(=O)[C@H](CC(C)C)NC(=O)[C@H](CC(C)C)NC(=O)[C@H](Cc1ccccc1)NC(=O)[C@H](CCC(=O)O)NC(=O)[C@H](CCCNC(=N)N)NC(=O)[C@H](CC(=O)O)NC(=O)[C@H](Cc1ccccc1)NC(=O)[C@H](CCCNC(=N)N)NC(=O)[C@H](CCCCN)NC(C)=O)C(N)=O [SEQ ID NO: 84] (Ac-KRFDREFLLAFQF[Nle]-NH2),4.07 µM
2,Ac-KQYDREFLLDFQFMPA-NH2 [SEQ ID NO: 52],10.5 µM

# Same assay, conditions: Table 2, cell-penetrating peptides with the Y----LL-F motif; read-out: IC50
row,Molecule,IC50
1,Ac-GAAEAAAYVYDLLLRFLRQRRRLRRERVRA-NH2 [SEQ ID NO: 25],11 µM
